In experiment [1] the test system is Wild-type P. aeruginosa PAO1. As to the kind of experiment: Broth microdilution MIC, wild-type P. aeruginosa PAO1. Format: cell-based. The settings on record: Pseudomonas aeruginosa; wild-type P. aeruginosa PAO1, 37° C., 18 h; read-out: PAO1 WT MIC. For orientation: Broth dilution looks for growth in wells or tubes with falling amounts of substance.
For experiment [2], the target named is recombinant LpxA enzyme (E. coli) (Escherichia coli, UniProt P0A722). As to the kind of experiment: LpxA in vitro substrate acylation assay with RapidFire MS analysis (E. coli). It is filed as biochemical. The method, then:
Exemplary compounds from the above Examples were tested for ability to inhibit LpxA activity using an in vitro substrate acylation assay with RapidFire™ MS analysis. Assay procedures and results are described below.
Reactions were carried out in a final volume of 30 μL with 25 mM HEPES (pH 7.3), 150 mM NaCl, 2 mM DTT, 0.01% BSA, 5 μM UDP-GlcNac, recombinant LpxA enzyme (0.5 nM P. aeruginosa or 1.0 nM E. coli, both produced at Evotec), 0.5 μM acyl-transfer reagent (decanoyl P. aeruginosa acyl-carrier protein [PaACP-C10] or myristoyl E. coli acyl-carrier protein [EcACP-C1-4], both produced at Evotec), and 1% DMSO containing test compound. After 30 min incubation at room temperature, reactions were stopped by addition of 30 μL of 10% TCA in water.
(§1) Samples were centrifuged (4350 rpm, 4° C., 5 min), and then subjected to RapidFire™ MS analysis on an Agilent RapidFire 300 coupled to an Agilent 6460 triple-quadrupole mass spectrometer. Analytes were retained on a C4 (type A) cartridge using the following solvents and flow rates: • Pump 1—H2O with 5 mM NH4OAc at 2.0 mL/min, • Pump 2—MeOH/H2O (90/10) at 1.5 mL/min, • Pump 3—MeOH/H2O (90/10) at 0.5 mL/min, and • Pump 4—ACN (organic)/H2O (aqueous). Substrate and product of the reaction were detected in negative mode ESI-MS/MS by MRM (multiple reaction monitoring) of transitions 606.0/385.0 (UDP-GlcNAc substrate) and 776.2/385.0 (UDP-3-O—(R-3-hydroxydecanoyl)-GlcNAc product, for P. aeruginosa LpxA assay) or 832.2/385.0 (UDP-3-O—(R-3-hydroxymyristoyl)-GlcNAc product, for E. coli LpxA assay).
For IC50 determinations, peak areas of the substrate and product were compared to compute the proportion of product formed by the LpxA enzyme at each compound concentration.

The target in experiment [3] is T1, recombinant LpxA enzyme (P. aeruginosa) (Pseudomonas aeruginosa, UniProt Q9X6P4).
T1 sequence (Q9X6P4 1-258): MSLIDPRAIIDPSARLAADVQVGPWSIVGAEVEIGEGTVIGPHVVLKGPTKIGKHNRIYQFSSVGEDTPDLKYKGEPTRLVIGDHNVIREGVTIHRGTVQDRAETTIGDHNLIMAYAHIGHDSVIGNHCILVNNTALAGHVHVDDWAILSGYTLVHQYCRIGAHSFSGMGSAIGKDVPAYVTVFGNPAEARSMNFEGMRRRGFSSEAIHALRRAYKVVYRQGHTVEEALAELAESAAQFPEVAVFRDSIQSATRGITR
The experiment in a line: LpxA in vitro substrate acylation assay with RapidFire MS analysis (P. aeruginosa). Format: biochemical. The settings on record: P. aeruginosa enzyme 0.5 nM, PaACP-C10, 30 min.

Another experiment concerns P. aeruginosa PAO397. The experiment in a line: Broth microdilution MIC, P. aeruginosa PAO397. Format: cell-based. Conditions: Pseudomonas aeruginosa, PAO397, 18 h, read-out: PAO397 KO MIC.
Experiment [4] concerns P. aeruginosa PAO1 ΔmexABoprM. As to the kind of experiment: Broth microdilution MIC, P. aeruginosa PAO1 ΔmexABoprM. Format: cell-based. Conditions: Pseudomonas aeruginosa, PAO1, 18 h, read-out: PAO1 KO MIC.
For a further experiment, the system named is P. aeruginosa LESB58. The experiment in a line: Broth microdilution MIC, P. aeruginosa LESB58. The settings on record: Pseudomonas aeruginosa; P. aeruginosa LESB58 clinical isolate, colistin-resistant, 37° C., 18 h. Format: cell-based.
In experiment [5] the target is T2, recombinant LpxD enzyme (P. aeruginosa) (Pseudomonas aeruginosa, UniProt Q9HXY6).
T2 sequence (Q9HXY6 1-353): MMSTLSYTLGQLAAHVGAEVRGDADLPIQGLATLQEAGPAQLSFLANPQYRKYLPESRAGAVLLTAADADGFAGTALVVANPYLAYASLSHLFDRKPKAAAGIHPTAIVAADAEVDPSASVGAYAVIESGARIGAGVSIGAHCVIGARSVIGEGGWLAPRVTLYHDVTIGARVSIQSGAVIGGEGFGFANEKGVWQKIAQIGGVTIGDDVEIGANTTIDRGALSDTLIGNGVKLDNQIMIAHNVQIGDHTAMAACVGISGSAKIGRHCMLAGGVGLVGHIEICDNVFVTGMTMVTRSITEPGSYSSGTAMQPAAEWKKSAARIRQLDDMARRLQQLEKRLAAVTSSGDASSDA
As to the kind of experiment: LpxD in vitro substrate acylation assay with RapidFire MS analysis (P. aeruginosa). It is filed as biochemical. Conditions: P. aeruginosa enzyme 10 nM, EcACP-C10, 120 min. The method, then:
Exemplary compounds from the above Examples were tested for ability to inhibit LpxD activity using an in vitro substrate acylation assay with RapidFire™ MS analysis. Assay procedures and results are described below.
Reactions were carried out in a final volume of 30 μL with 25 mM HEPES (pH 7.3), 150 mM NaCl, 2 mM DTT, 0.01% BSA, 5 μM UDP-3-O[R-3-Hydroxymyristoyl]-glucosamine (produced at Charles River according to literature procedures, and partially purified at Evotec), 10 nM recombinant LpxD enzyme (P. aeruginosa or E. coli, produced at Evotec), 1 μM decanoyl E. coli acyl-carrier protein (EcACP-C10, produced at Evotec), and 1% DMSO containing test compound. After 120 min incubation at room temperature, reactions were stopped by addition of 30 μL of 10% TCA in water.
as §1, with “790.3/385.0 (UDP-3-O[R-3-Hydroxymyristoyl]-glucosamine” for “606.0/385.0 (UDP-GlcNAc”, “960.4/385.0 (UDP-3-O—[R-3-Hydroxymyristoyl]-N—[R-3-hydroxydecanoyl]-glucosamine product).” for “776.2/385.0 (UDP-3-O—(R-3-hydroxydecanoyl)-GlcNAc product, for P. aeruginosa LpxA assay) or 832.2/385.0 (UDP-3-O—(R-3-hydroxymyristoyl)-GlcNAc product, for E. coli LpxA assay).”
For IC50 determinations, peak areas of the substrate and product were compared to compute the proportion of product formed by the LpxD enzyme at each compound concentration. The fractional activity was converted to percentage inhibition and plotted against compound concentration in Evotec's proprietary platform Aplus and fit using a four-parameter logistic using non-linear regression to yield the IC50 value.

Molecules are shown by their SMILES. Values after ≈ are worked out from the molar mass of the structure shown. A value given as a limit tells only on which side of the number the result lay.

Chain of recombinant LpxA enzyme (E. coli) (P0A722 whole entry): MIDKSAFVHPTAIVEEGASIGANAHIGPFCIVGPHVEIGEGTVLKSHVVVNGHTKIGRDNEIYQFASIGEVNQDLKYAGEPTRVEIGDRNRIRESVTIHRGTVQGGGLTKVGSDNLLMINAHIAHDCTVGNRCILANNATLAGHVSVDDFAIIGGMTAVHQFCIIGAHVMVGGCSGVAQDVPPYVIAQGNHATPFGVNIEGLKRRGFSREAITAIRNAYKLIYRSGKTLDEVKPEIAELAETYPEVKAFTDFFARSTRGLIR

For the molecule `CC(=O)Nc1ccc(CN(Cc2nnc(N)o2)C(=O)CSc2ccccc2Cl)cc1` [compound 44], the MIC – broadly, the lowest concentration found to suppress growth – is greater than 64 µg/mL in experiment [1] and 16 to 64 µg/mL (≈ 35.9 to 144 µM) with P. aeruginosa PAO397. Besides, the IC50 (as a rule, the concentration that gives 50% inhibition) was greater than 20 µM in experiment [2] and 0.1 to 1 µM in experiment [3].
In the case of `Nc1nnc(CN(Cc2ccc(OC3CCOCC3)cc2)C(=O)CSc2ccccc2Cl)o1` [Compound No. 11], the minimum inhibitory concentration (MIC) in experiment [4] is 1 to 16 µg/mL (≈ 2.05 to 32.7 µM); with P. aeruginosa PAO397 it was less than 1 µg/mL. The IC50 in experiment [2] was greater than 20 µM; in experiment [3] it was 0.1 to 1 µM.
On to `N#Cc1ccc(CN(C(=O)CSc2ccccc2Cl)[C@@H](CO)c2nnc(N)o2)cn1` [Compound No. 8, 2-(2-Chlorophenyl)sulfanyl-N-[(6-cyano-3-pyridyl)methyl]-N-[(1S)-1-(5-amino-1,3,4-oxadiazol-2-yl)-2-hydroxy-ethyl]acetamide], for which the MIC in experiment [4] was 1 to 16 µg/mL (≈ 2.25 to 36 µM); in experiment [1], greater than 64 µg/mL; in the experiment with P. aeruginosa PAO397, less than 1 µg/mL. Moreover, the IC50 in experiment [2] was greater than 20 µM; in experiment [3] it was less than 0.02 µM.
With `Nc1nnc(CN(Cc2ccc(S(N)(=O)=O)cc2F)C(=O)CSc2cc(F)cc(F)c2Cl)o1` [compound 27], the MIC is 1 to 16 µg/mL (≈ 1.92 to 30.7 µM) against P. aeruginosa LESB58, less than 1 µg/mL in experiment [4], greater than 64 µg/mL in experiment [1] and less than 1 µg/mL in the experiment with P. aeruginosa PAO397. Moreover, the IC50 in experiment [2] is greater than 20 µM.
On to `N#Cc1ccc(CN(CC(=O)N2CCNCC2)C(=O)CSc2ccccc2Cl)cc1` [Compound No. 3], for which the figures for the MIC (in experiment [1]; with P. aeruginosa PAO397) were greater than 64 µg/mL and 16 to 64 µg/mL (≈ 36.1 to 144 µM), respectively. Further, the IC50 in experiment [2] was greater than 20 µM; in experiment [3], greater than 1 µM.
Consider `N#Cc1ccc(CN(Cc2nnn[nH]2)C(=O)CSc2ccccc2Cl)cc1` [compound 54], for which the MIC was greater than 64 µg/mL in experiment [1] and 16 to 64 µg/mL (≈ 40.1 to 160 µM) with P. aeruginosa PAO397. Also, the IC50 in experiment [2] is greater than 20 µM.
Turning to `CN1CC(NC(=O)CN(Cc2ccc(C#N)cc2)C(=O)CSc2ccccc2Cl)C1` [Compound No. 6], the values for the IC50 in experiment [5] and in experiment [3] were greater than 20 µM and greater than 1 µM, respectively. Also, the MIC in experiment [1] is greater than 64 µg/mL; with P. aeruginosa PAO397, 1 to 16 µg/mL (≈ 2.26 to 36.1 µM).
Regarding `Cc1ncc(CN(Cc2ccc(C#N)cc2)C(=O)CSc2ccccc2Cl)o1` [compound 73], the MIC in experiment [1] was greater than 64 µg/mL; in the experiment with P. aeruginosa PAO397, 1 to 16 µg/mL (≈ 2.43 to 38.8 µM). Further, the IC50 in experiment [2] was greater than 20 µM; in experiment [3], 0.1 to 1 µM.
Regarding `N#Cc1ccc(CN(Cc2nnc(N)o2)C(=O)CCc2ccccc2Cl)cn1` [compound 16], the MIC is 16 to 64 µg/mL (≈ 40.3 to 161 µM) in experiment [4], greater than 64 µg/mL in experiment [1] and 1 to 16 µg/mL (≈ 2.52 to 40.3 µM) with P. aeruginosa PAO397. Besides, the IC50 in experiment [2] was greater than 20 µM; in experiment [3] it was 0.1 to 1 µM.
On to `Nc1nnc(CN(Cc2ccc(S(N)(=O)=O)cc2)C(=O)CSc2cc(F)cc(F)c2Cl)o1` [compound 59], for which the MIC in the experiment with P. aeruginosa LESB58 was 16 to 64 µg/mL (≈ 31.7 to 127 µM); in experiment [4], 1 to 16 µg/mL (≈ 1.98 to 31.7 µM); in experiment [1], greater than 64 µg/mL; in the experiment with P. aeruginosa PAO397, less than 1 µg/mL. The figures for the IC50 in experiment [2] and in experiment [3] were greater than 20 µM and less than 0.02 µM, respectively.
With `N#Cc1ccc(CN(Cc2nnc(N)o2)C(=O)CSc2ccccc2Cl)cc1` [compound 9], the values for the MIC (in experiment [4]; in experiment [1]; with P. aeruginosa PAO397) were 1 to 16 µg/mL (≈ 2.42 to 38.7 µM), 16 to 64 µg/mL (≈ 38.7 to 155 µM) and less than 1 µg/mL, respectively. For the same molecule, in experiment [2], the IC50 was greater than 20 µM.
Consider `N#Cc1ccc(CN(CC(=O)N2CCOCC2)C(=O)CSc2ccccc2Cl)cc1` [Compound No. 2], for which the figures for the IC50 in experiment [5], in experiment [2] and in experiment [3] were greater than 20 µM, greater than 20 µM and greater than 1 µM, respectively. Besides, the MIC in experiment [1] was greater than 64 µg/mL; with P. aeruginosa PAO397 it was 16 to 64 µg/mL (≈ 36 to 144 µM).
Regarding `NC(=O)c1ccc(CN(Cc2nnc(N)o2)C(=O)CSc2ccccc2Cl)cc1` [compound 76], the MIC in experiment [4] is 16 to 64 µg/mL (≈ 37 to 148 µM); in experiment [1], greater than 64 µg/mL; in the experiment with P. aeruginosa PAO397 it was 1 to 16 µg/mL (≈ 2.32 to 37 µM). The figures for the IC50 in experiment [2] and in experiment [3] were greater than 20 µM and 0.1 to 1 µM, respectively.
